Converted amounts (≈) assume the structure as drawn. Marks after values point to notes of the source that are not given here.
Tests used:
Assay type in all cases: physicochemical
[1] = Approximate solubility at 25° C. (visual observation)
Experimental: Max. volume of each solvent added was 1 mL. Approximate solubility was determined by visual observation.

[2] = Investigation of factors impacting racemization
From the text: Therefore, the factors impacting racemization were investigated including pH, temperature, molecular sieve and experimental duration. […] It is worth noted that racemization can be accelerated when solvents are pretreated by molecular sieve, since the pH value is shifted to basic after pretreatment.
During DSC test for I-1 Form A, different heating rates result in different thermal events. To investigate whether racemization occurs during heating, I-1 Form A was heated to different temperatures then obtained solids were tested by SFC.

[3] = Stability of I-1 solution during concentration (pH, temperature; chiral purity); details: for Purity / ee %: 1N HCl; for ee %: start ee 98.43%
[4] = after heating to 260° C. at 2° C./min by DSC
[5] = after heating to 300° C. at 2° C./min by DSC
[6] = 10-20° C. MeOH, pH 4, stir for 4 h

## N#Cc1c(-c2cc(NC(=O)c3cc(F)cc(C(F)(F)F)c3)c3c(c2)C(=O)N[C@H]3c2cc(F)ccc2Cl)ccc2ncnn12 [Compound I-1, (R)-N-(3-(2-chloro-5-fluorophenyl)-6-(5-cyano-[1,2,4]triazolo[1,5-a]pyridin-6-yl)-1-oxoisoindolin-4-yl)-3-fluoro-5-(trifluoromethyl)benzamide]
[1]; 1,4-dioxane, organic solvent or mixture, thermodynamic from solid, 1,4-Dioxane, polymorph screening batch
  Solubility: 29 to 33 mg/mL (≈ 47.6 to 54.2 mM)
[1]; 2-MeTHF, organic solvent or mixture, thermodynamic from solid, polymorph screening batch
  Solubility: 5 to 6 mg/mL (≈ 8.21 to 9.85 mM)
[1]; acetone, organic solvent or mixture, thermodynamic from solid, polymorph screening batch
  Solubility: 43 to 52 mg/mL (≈ 70.6 to 85.4 mM)
[1]; acetone, organic solvent or mixture, thermodynamic from solid, starting material for salt screening
  Solubility: 12 to 17 mg/mL
[1]; acetonitrile, organic solvent or mixture, thermodynamic from solid, polymorph screening batch
  Solubility: 10 to 11 mg/mL (≈ 16.4 to 18.1 mM)
[1]; acetonitrile, organic solvent or mixture, thermodynamic from solid, starting material for salt screening
  Solubility: 10 to 17 mg/mL
[1]; anisole, organic solvent or mixture, thermodynamic from solid, polymorph screening batch
  Solubility: < 5 mg/mL
[1]; benzyl alcohol, organic solvent or mixture, thermodynamic from solid, polymorph screening batch
  Solubility: 16 to 18 mg/mL (≈ 26.3 to 29.6 mM)
[1]; chloroform, organic solvent or mixture, thermodynamic from solid, polymorph screening batch
  Solubility: < 5 mg/mL
[1]; dichloromethane, organic solvent or mixture, thermodynamic from solid, polymorph screening batch
  Solubility: < 5 mg/mL
[1]; dichloromethane, organic solvent or mixture, thermodynamic from solid, starting material for salt screening
  Solubility: < 5 mg/mL
[1]; ethanol, organic solvent or mixture, thermodynamic from solid, polymorph screening batch
  Solubility: 6 to 7 mg/mL (≈ 9.85 to 11.5 mM)
[1]; ethanol, organic solvent or mixture, thermodynamic from solid, starting material for salt screening
  Solubility: < 5 mg/mL
[1]; ethyl acetate, organic solvent or mixture, thermodynamic from solid, polymorph screening batch
  Solubility: 6 to 7 mg/mL (≈ 9.85 to 11.5 mM)
[1]; heptane, organic solvent or mixture, thermodynamic from solid, polymorph screening batch
  Solubility: < 5 mg/mL
[1]; isopropanol, organic solvent or mixture, thermodynamic from solid, polymorph screening batch
  Solubility: < 5 mg/mL
[1]; isopropanol, organic solvent or mixture, thermodynamic from solid, starting material for salt screening
  Solubility: < 5 mg/mL
[1]; isopropyl acetate, organic solvent or mixture, thermodynamic from solid, polymorph screening batch
  Solubility: < 5 mg/mL
[1]; isopropyl acetate, organic solvent or mixture, thermodynamic from solid, starting material for salt screening
  Solubility: < 5 mg/mL
[1]; methanol, organic solvent or mixture, thermodynamic from solid, polymorph screening batch
  Solubility: 15 to 17 mg/mL (≈ 24.6 to 27.9 mM)
[1]; methanol, organic solvent or mixture, thermodynamic from solid, starting material for salt screening
  Solubility: 12 to 17 mg/mL
[1]; methyl ethyl ketone, organic solvent or mixture, thermodynamic from solid, polymorph screening batch
  Solubility: 26 to 28 mg/mL (≈ 42.7 to 46 mM)
[1]; methyl ethyl ketone, organic solvent or mixture, thermodynamic from solid, starting material for salt screening
  Solubility: 12 to 17 mg/mL
[1]; nitromethane, organic solvent or mixture, thermodynamic from solid, Nitromethane (NM), polymorph screening batch
  Solubility: 7 to 8 mg/mL (≈ 11.5 to 13.1 mM)
[1]; t-butyl methyl ether, organic solvent or mixture, thermodynamic from solid, polymorph screening batch
  Solubility: < 5 mg/mL
[1]; tetrahydrofuran, organic solvent or mixture, thermodynamic from solid, polymorph screening batch
  Solubility: 52 to 65 mg/mL (≈ 85.4 to 107 mM)
[1]; tetrahydrofuran, organic solvent or mixture, thermodynamic from solid, starting material for salt screening
  Solubility: 33 to 64 mg/mL
[1]; toluene, organic solvent or mixture, thermodynamic from solid, polymorph screening batch
  Solubility: < 5 mg/mL
[1]; trifluoroethanol, organic solvent or mixture, thermodynamic from solid, starting material for salt screening
  Solubility: 12 to 17 mg/mL
[1]; water, thermodynamic from solid, polymorph screening batch
  Solubility: < 5 mg/mL
[1]; water, thermodynamic from solid, starting material for salt screening
  Solubility: < 5 mg/mL
[2]; Batch #1 as received, SFC after preparation for 12 h
  ee %(SFC): ee % (SFC): 97.7%#;
[2]; Batch #1 as received, SFC immediately after preparation
  ee %(SFC): ee % (SFC): 100.0%*
[2]; [4]
  XRPD: XRPD: low crystallinity
  ee %(SFC): ee % (SFC): 88.1%*
[2]; after heating to 270° C. at 2° C./min by DSC
  ee %(SFC): ee % (SFC): 10.9%*
[2]; [5]
  XRPD: XRPD: amorphous form
  ee %(SFC): ee % (SFC): 2.2%*
[2]; certain high temperatures
  racemization during heating (DSC, solids tested by SFC): racemization indeed occurred
[2]; sped up by basic pH, high temperature, longer time, exposure to light
  racemization in different solvents: racemization easily occurs
[3]; [6]
  Purity: 99.53%
  ee %: 98.33%
[3]; 10˜20° C. within 68 h
  stability in solution: stable
[3]; 40-50° C. MeOH, pH 4, stir for 4 h
  ee %: 98.38%
[3]; 40-50° C. MeOH, pH 4, stir for 68 h
  Purity: 99.29%
